According to patent US20210147472A1, “SOLID FORMS AND FORMULATIONS COMPRISING A GLUCOCORTICOID RECEPTOR ANTAGONIST AND USES THEREOF” (ORIC Pharmaceuticals, Inc., priority 2018, published 2021):
≈ marks a conversion by molar mass, not a printed value.

Columns and labels:
Type in all cases: physicochemical
[1] = Solubility screen of Compound 1 in lipids; conditions: oil or lipid
[2] = Effect of stabilizers on stability of Compound 1 capsule matrix (A1 formation)
Experimental: Two antioxidants, α-tocopherol and ascorbyl palmitate, were evaluated to minimize the oxidation. Use of α-tocopherol alone improved Compound 1 stability as measured by the formation of A1 (see Table 1). When ascorbyl palmitate was combined with α-tocopherol, further stability improvement was observed. Table 14 summarizes the compositions of the Compound 1 capsule matrix evaluated and Table 15 summarizes the effect of α-tocopherol and ascorbyl palmitate as stabilizers on the stability of Compound 1.

[3] = Solubility of Compound 1 (freebase form) in dosing vehicles, HPLC; conditions: shaken five days, 25° C. (40° C. semi-solid, 50° C. solid vehicles)
Experimental: This study was carried out to evaluate the solubility of Compound 1 (freebase form) in a variety of dosing vehicles to identify excipient classes that maximize drug solubility. A total of 20 vehicles which were selected and agreed with the customer were used in this study. Compound 1 was added to approximately 1 gram of the excipients. After the initial addition of Compound 1, the mixtures were shaken in a temperature-controlled vortex mixer at 25° C. (40° C. for vehicles that were semi-solid at room temperature and 50° C. for solid vehicles) then examined for solid residues. If dissolution was observed during the mixing time, additional Compound 1 was added until no further dissolution was observed. After shaking for a total of five days, the suspensions were filtered using a centrifuge tube with 0.45 PVDF membrane filter (Millipore Durapore®). The filtrate was weighed in to a 25-mL volumetric flask and diluted to volume with the diluent solution (90:10% v/v IPA/Acetonitrile) for a determination of Compound 1 concentration via High Performance Liquid Chromatography (HPLC). Residual solids were inspected by PXRD to determine the solid form. Quantitative determination of the amount of API dissolved was performed using reverse-phase HPLC analyses on an Agilent 1290 Infinity II UHPLC system equipped with a Diode Array Detector (DAD). Agilent 1290 Infinity II UHPLC system equipped with a Diode Array Detector (DAD) Mobile Phase A: 0.05% Formic acid in water Mobile Phase B: 0.05% Formic acid in acetonitrile

CC(C)N(C)c1ccc([C@H]2C[C@@]3(C)[C@@H](CC[C@@]3(O)C#CC(C)(C)C)[C@@H]3CCC4=CC(=O)CC[C@@H]4[C@H]32)cc1 [Compound 1, (8R,9S,10R,11S,13S,14S,17S)-17-(3,3-dimethylbut-1-yn-1-yl)-17-hydroxy-11-(4-(isopropyl(methyl)amino)phenyl)-13-methyl-1,2,6,7,8,9,10,11,12,13,14,15,16,17-tetradecahydro-3H-cyclopenta[a]phenanthren-3-one]
Solubility ([1]; in Capmul MCM (Glyceryl monocaprylcaprate, Type I, NF)): < 40 mg/mL
Solubility ([1]; in Capryol 90 (Propylene glycol monocaprylate, Type II, NF)): 40 mg/mL (≈ 79.7 mM)
Solubility ([1]; in Capryol 90 + 5% Poloxamer P188 USP, particulate seen after 24 hours): 50 mg/mL
Solubility ([1]; in Kolliphor EL (PEG-35 Castor Oil USP)): < 40 mg/mL
Solubility ([1]; in Labrasol ALF (Caprylocaproyl Polyoyl-8 glycerides, NF)): 40 mg/mL (≈ 79.7 mM)
Solubility ([1]; in Maisine CC (Caprylic/capric triglyceride NF)): < 40 mg/mL
Solubility ([1]; in Tween 20 (Polysorbate 20 NF)): < 40 mg/mL
Solubility ([1]; in Tween 80 (polysorbate 80 NF)): < 40 mg/mL
Formation of A1 ([2]; combination of α-tocopherol and ascorbyl palmitate as stabilizers): substantially suppresses
Formation of primary oxidative N-demethylation product (A1) ([2]; in caprylic acid, extended stability, after about 4-6m): greater than 4%
Compound 1 stability as measured by the formation of A1 ([2]; use of α-tocopherol alone): improved
Solubility ([3]; in Caprylocaproyl polyoxyl-8 glycerides): 42.4 mg/g
Solubility ([3]; in Decanoic acid (Capric acid)): 201.0 mg/g
Solubility ([3]; in Diethyl glycol monoethyl ether): 130.3 mg/g
Solubility ([3]; in Glycerin): 0.1 mg/g
Solubility ([3]; in Glyceryl caprylate/caprate): 79.0 mg/g
Solubility ([3]; in Glyceryl monolinoleate): 41.2 mg/g
Solubility ([3]; in Lauroyl polyoxyl-6 glycerides): 40.8 mg/g
Solubility ([3]; in Lauroyl polyoxyl-32 glycerides): 39.2 mg/g
Solubility ([3]; in Medium chain triglycerides): 26.1 mg/g
Solubility ([3]; in Octanoic acid (Caprylic acid)): 199.2 mg/g
Solubility ([3]; in PEG 400): 14.5 mg/g
Solubility ([3]; in Polyethylene glycol monostearate): 34.2 mg/g
Solubility ([3]; in Polyethylene glycol sorbitan monolaurate): 26.1 mg/g
Solubility ([3]; in Propylene Glycol): 12.1 mg/g
Solubility ([3]; in Propylene glycol monocaprylate): 139.6 mg/g
Solubility ([3]; in Propylene glycol monolaurate): 68.4 mg/g
Solubility ([3]; in Sorbitan Monolaurate): 34.1 mg/g
Solubility ([3]; in Sorbitan monooleate): 19.5 mg/g
Solubility ([3]; in Triacetin): 21.9 mg/g
Solubility ([3]; in Vitamin E TPGS): 8.3 mg/g
